Source: patent publication US11464720B2, “TRPA1 activity inhibitor” (MANDOM CORPORATION, priority 2017, dated 2022)

How the values were obtained:
[1] = target: T1, human TRPA1 (Homo sapiens, UniProt O75762); assay: Test Example 1: TRPA1 activity-inhibition ratio, intracellular calcium (Fura 2-AM) in TRPA1-expressing HEK293 cells stimulated with menthol; type: cell-based; conditions: mixed with agonist 1 mM menthol
T1 construct: expressed in transfected cells; host or cells: HEK293 cells, transient lipofection of pcDNA3.1(+) human TRPA1-expression vector
Protocol: A cDNA encoding human TRPA1 [a polynucleotide of position 63 to position 3888 of the nucleotide sequence shown in SEQ ID NO: 1 (GenBank Accession No.: NM_007332)] was inserted into a cloning site of a vector for mammalian cells [manufactured by Invitrogen under the trade name of pcDNA3.1(+)], to obtain a human TRPA1-expression vector. One microgram of the resulting human TRPA1-expression vector was mixed with 6 μL of a gene transfer reagent [manufactured by Invitrogen under the trade name of PLUS Reagent, Catalogue No.: 11514-015], to obtain a mixture I. Additionally, 4 μL of a cationic lipid for gene transfer [manufactured by Invitrogen under the trade name of Lipofectamine (registered trademark), Catalogue No.: 18324-012] was mixed with 200 μL of a medium for reducing serum consumption [Manufactured by Invitrogen under the trade name of Opti-MEM (registered trademark) I Reduced Serum Medium (catalogue No.: 11058021)], to obtain a mixture II.
Furthermore, 5×10^5 cells of HEK293 cells were cultured in a 10% by mass fetal bovine serum (FBS)-containing Dulbecco's modified Eagle's medium (DMEM) on a dish having a diameter of 35 mm maintained at 37° C. under 5% by volume carbon dioxide atmosphere to 70% confluence.
By adding the mixture I and the mixture II to the resulting cell culture, the human TRPA1-expression vector was introduced into HEK293 cells, to obtain TRPA1-expressing cells. […]
Thereafter, intensity of fluorescence A based on the Fura 2-AM introduced into the TRPA1-expressing cell and bound to a calcium ion in the cells at an excitation wavelength of 340 nm in the chamber and intensity of fluorescence B based on the Fura 2-AM introduced into the TRAP1-expressing cell at an excitation wavelength of 380 nm were measured.
Using the measured intensity of fluorescence A and B, Δfluorescence intensity ratioagonist was calculated. The Δfluorescence intensity ratioagonist was calculated on the basis of the formula (IV): [Formula 1] ΔFluorescence intensity ratioagonist=(Fluorescence intensity340 nm in the presence of an agonist/Fluorescence intensity 380 nm in the presence of an agonist)−(Fluorescence intensity340 nm in the presence of a control/Fluorescence intensity380 nm in the presence of a control) (IV).
In the formula (IV), the intensity of fluorescence A was used as fluorescence intensity340 nm, and the intensity of fluorescence B was used as fluorescence intensity380 nm. […]

[2] = target: T2, human TRPM8 (Homo sapiens, UniProt Q7Z2W7); assay: Test Example 2: enhancement degree of TRPM8 activity, intracellular calcium (Fura 2-AM) in TRPM8-expressing HEK293 cells; type: cell-based; conditions: test sample 0.5 mM, ratio to TRPM8 activity enhanced by agonist 1 mM menthol, FIG. 2
T2 construct: expressed in transfected cells; host or cells: HEK293 cells, transient lipofection of pcDNA3.1(+) human TRPM8-expression vector
Protocol: A cDNA encoding human TRPM8 [a polynucleotide of position 41 to position 3355 of the nucleotide sequence shown in SEQ ID NO: 3 (GenBank Accession No.: NM_024080)] was inserted into a cloning site of a vector for mammalian cells [manufactured by Invitrogen under the trade name of pcDNA3.1(+)], to obtain a human TRPM8-expression vector. One microgram of the resulting human TRPM8-expression vector was mixed with 6 μL of a gene transfer reagent [manufactured by Invitrogen under the trade name of PLUS Reagent, Catalogue No.: 11514-015], to obtain a mixture III. […]
Thereafter, intensity of fluorescence E based on the Fura 2-AM introduced into the TRPM8-expressing cell and bound to a calcium ion in the cells at an excitation wavelength of 340 nm and intensity of fluorescence F based on the Fura 2-AM introduced into the TRAM8-expressing cell at an excitation wavelength of 380 nm were measured in the chamber.
Using the measured intensity of fluorescence E and F, Δfluorescence intensity ratiotest sample was calculated on the basis of the formula (V). In the formula (V), the intensity of fluorescence E was used as fluorescence intensity340 nm, and the intensity of fluorescence F was used as fluorescence intensity380 nm. […]

[3] = test sample 1 mM in solvent A, FIG. 1

T1 sequence (O75762 whole entry): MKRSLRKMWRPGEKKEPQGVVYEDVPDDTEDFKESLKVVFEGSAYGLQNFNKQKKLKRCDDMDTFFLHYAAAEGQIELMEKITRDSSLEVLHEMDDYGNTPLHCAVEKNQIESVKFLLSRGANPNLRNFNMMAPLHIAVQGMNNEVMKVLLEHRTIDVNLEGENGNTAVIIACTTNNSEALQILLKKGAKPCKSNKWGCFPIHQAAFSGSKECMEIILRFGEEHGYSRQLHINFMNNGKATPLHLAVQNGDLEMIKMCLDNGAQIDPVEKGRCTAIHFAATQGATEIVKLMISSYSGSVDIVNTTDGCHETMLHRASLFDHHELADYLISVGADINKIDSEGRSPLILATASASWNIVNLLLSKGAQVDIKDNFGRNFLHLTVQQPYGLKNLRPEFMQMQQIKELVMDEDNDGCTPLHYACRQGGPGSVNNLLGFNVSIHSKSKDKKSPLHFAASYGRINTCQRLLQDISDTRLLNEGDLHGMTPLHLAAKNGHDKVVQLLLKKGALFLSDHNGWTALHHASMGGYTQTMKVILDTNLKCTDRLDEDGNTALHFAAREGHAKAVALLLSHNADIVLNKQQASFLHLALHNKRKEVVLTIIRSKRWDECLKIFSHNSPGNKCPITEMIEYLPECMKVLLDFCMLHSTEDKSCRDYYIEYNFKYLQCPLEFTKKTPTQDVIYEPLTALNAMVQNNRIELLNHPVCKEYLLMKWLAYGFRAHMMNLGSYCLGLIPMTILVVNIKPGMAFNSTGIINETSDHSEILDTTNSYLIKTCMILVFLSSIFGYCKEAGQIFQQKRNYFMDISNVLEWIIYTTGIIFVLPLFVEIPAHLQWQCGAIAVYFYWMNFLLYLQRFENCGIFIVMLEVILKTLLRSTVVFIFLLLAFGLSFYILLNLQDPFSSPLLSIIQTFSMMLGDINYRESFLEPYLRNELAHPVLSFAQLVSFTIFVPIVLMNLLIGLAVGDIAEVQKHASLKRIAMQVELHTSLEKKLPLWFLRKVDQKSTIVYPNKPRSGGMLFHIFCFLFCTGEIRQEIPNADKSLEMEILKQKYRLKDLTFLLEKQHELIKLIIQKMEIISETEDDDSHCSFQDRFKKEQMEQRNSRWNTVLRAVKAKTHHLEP
T2 sequence (Q7Z2W7 whole entry): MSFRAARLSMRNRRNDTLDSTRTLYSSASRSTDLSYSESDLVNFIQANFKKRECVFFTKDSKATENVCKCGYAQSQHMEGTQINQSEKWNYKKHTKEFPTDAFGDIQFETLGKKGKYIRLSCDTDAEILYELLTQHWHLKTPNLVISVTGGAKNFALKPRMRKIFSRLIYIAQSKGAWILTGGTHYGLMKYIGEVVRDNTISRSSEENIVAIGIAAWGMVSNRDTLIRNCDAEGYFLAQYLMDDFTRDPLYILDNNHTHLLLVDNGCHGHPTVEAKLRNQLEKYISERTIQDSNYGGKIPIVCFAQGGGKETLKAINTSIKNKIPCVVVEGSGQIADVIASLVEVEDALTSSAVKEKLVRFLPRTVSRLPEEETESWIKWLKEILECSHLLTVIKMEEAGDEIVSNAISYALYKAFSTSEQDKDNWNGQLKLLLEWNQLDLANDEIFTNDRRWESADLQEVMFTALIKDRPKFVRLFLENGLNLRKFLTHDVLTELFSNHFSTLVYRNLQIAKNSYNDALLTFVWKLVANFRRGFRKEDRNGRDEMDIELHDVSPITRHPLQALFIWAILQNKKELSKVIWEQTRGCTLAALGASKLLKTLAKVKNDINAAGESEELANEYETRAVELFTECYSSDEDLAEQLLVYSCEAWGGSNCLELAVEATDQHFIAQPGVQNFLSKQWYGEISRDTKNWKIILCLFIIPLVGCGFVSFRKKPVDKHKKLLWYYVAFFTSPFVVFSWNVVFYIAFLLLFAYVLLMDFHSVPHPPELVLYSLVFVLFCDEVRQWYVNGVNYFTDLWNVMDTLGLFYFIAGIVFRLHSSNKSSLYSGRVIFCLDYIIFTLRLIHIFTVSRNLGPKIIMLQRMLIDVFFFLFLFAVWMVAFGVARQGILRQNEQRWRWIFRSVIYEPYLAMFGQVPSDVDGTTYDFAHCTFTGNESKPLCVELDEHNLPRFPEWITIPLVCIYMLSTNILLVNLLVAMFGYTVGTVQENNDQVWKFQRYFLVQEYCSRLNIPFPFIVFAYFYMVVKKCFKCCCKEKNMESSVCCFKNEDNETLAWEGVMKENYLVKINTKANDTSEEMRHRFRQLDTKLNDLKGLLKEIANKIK

TRPA1 activity-inhibition ratio [1, 3]	Enhancement degree of TRPM8 activity [2]	TRPA1 activity-inhibition ratio ([1]; test sample 5 mM glycerol in solvent A, FIG. 1 lane 4)	SMILES
about 99%	about 0.69	–	CC1(C)C2CCC1(C)C(OCCO)C2 (stereo not drawn) [Example 1, 2-isobornyloxyethanol]
about 71%	–	–	CC12CCC(CC1)C(C)(C)O2 [Reference Example 2, 1,8-cineole]
about 96%	about 0.35	–	CC1(C)C2CCC1(C)C(O)C2 (stereo not drawn) [Reference Example 1, Borneol]
–	–	≤ 0%	OCC(O)CO [Comparative Example 1, Glycerol]
